Data reported in patent US20220273739A1, “COMBINATION DRUG FOR TREATING MALIGNANT TUMOR, PHARMACEUTICAL COMPOSITION FOR TREATING MALIGNANT TUMOR, AND PHARMACEUTICAL COMPOSITION FOR MALIGNANT TUMOR TREATMENT” (priority 2019, published 2022).

Tested on: murine squamous cell carcinoma (SCC VII)
Test: Antitumor effect (tumor size) in both-side side-abdomen implanted SCC VII tumor-bearing mice
Assay type: in vivo, C3H/He Slc mice
Settings: for antitumor effect (tumor size), tumor with administration of the drug (treated group): FIG. 1A, intratumoral administration on Day 0, 3, 6, compared to MOCK (saline solution), C-REV 1×10^6 pfu/100 μl, cGAMP 20 μg/100 μl; for antitumor effect (tumor size), tumor spaced apart from the tumor with administration of the drug (non-treated group): FIG. 1B / FIG. 2, tumor on opposite side of the abdomen received saline solution only, drug given to the other tumor on Day 0, 3, 6
Text: Six-week-old female C3H/He Slc mice (purchased from Chubu Kagaku Shizai Co., Ltd.) were used as mice. A tumor of murine squamous cell carcinoma (SCC VII; given by professor Shin-ichiro Masunaga, Kyoto University Institute for Integrated Radiation and Nuclear Science) was cut into 2 mmcubes, and two of the cubes were implanted under the skin on both sides of the abdomen of the mice by a tumor implantation needle (both-side side-abdomen implanted model). When the size of the tumor reached the size of 100 mm^3, grouping was performed. Although differing among the mice, one tumor end and the other tumor end were spaced apart from each other by about 10 mm.
First medicine: C-REV was suspended in a saline solution to obtain a concentration of 1×10^6 pfu/100 μl.
Second medicine: 2′3′-cGAMP (No. tlrl-nacga23 by Invivogen) was dissolved and suspended in a saline solution to obtain a concentration of 20 μg/100 μl.
Day 0: The first medicine of 100 μl was administered to a tumor (treated group) on one side of the abdomen. Further, a saline solution of 100 μl was administered to a tumor (non-treated group) on the other side of the abdomen. Day 3: The second medicine of 100 μl was administered to a tumor (treated group) on one side of the abdomen. Further, a saline solution of 100 μl was administered to a tumor (non-treated group) on the other side of the abdomen. Day 6: The second medicine of 100 μl was administered to a tumor (treated group) on one side of the abdomen. Further, a saline solution of 100 μl was administered to a tumor (non-treated group) on the other side of the abdomen.
The tumor size was calculated from multiplication of the longer diameter by the shorter diameter by the shorter diameter by 1/2 of a tumor.
(§1) The experiment was performed in the same procedure as for Example 1 except for administration of a saline solution of 100 μl on Day 3 and Day 6 instead of the administration of the second medicine to the treated group.
as §1, with “Example 1 except for administration of the second medicine on Day 0 instead of the administration of the first medicine to the treated group and except for” for “Example 1 except for”
as §1, with “Example 1 except for administration of a saline solution of 100 μl on Day 0 instead of the administration of the first medicine to the treated group and except for” for “Example 1 except for”
The experiment was performed in the same procedure as for Example 1 except for use of the hrR3 instead of the C-REV as the first medicine. […]

Row | Compound | antitumor effect (tumor size), tumor with administration of the drug (treated group) | antitumor effect (tumor size), tumor spaced apart from the tumor with administration of the drug (non-treated group)
1 | Nc1nc2c(ncn2[C@@H]2O[C@@H]3COP(=O)(O)O[C@H]4[C@@H](O)[C@H](n5cnc6c(N)ncnc65)O[C@@H]4COP(=O)(O)O[C@@H]2[C@@H]3O)c(=O)[nH]1 [cGAMP, 2′3′-cyclic GMP-AMP] | an antitumor effect was developed | almost no antitumor effect
2 | Canerpaturev [C-REV] | an antitumor effect was developed | almost no antitumor effect
